In experiment [1] the test system is MLKL phosphorylation in HT29-L23 human colorectal adenocarcinoma cells. The experiment in a line: MLKL Phosphorylation High-Content Assay. In kind it is cell-based. The note with it: 6 h, necroptosis induced with TNFα, SMAC mimetic and Z-VAD, read-out: pMLKL (IC50). The method, boiled down: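 HT29-L23 cells pretreated 30 min at 37 °C with compound (6.25 to 0.106 μM final), then necroptosis induced with TNFα 35 ng/mL, SMAC mimetic 700 nM and Z-VAD 140 nM for 6 h. Fixed cells immunostained for MLKL pS358 and imaged; IC50 and Ymax from 4-parameter logistic fit.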

Experiment [2] addresses His-GST-TVMV-hRIPK1(1-324) (Homo sapiens (Human), UniProt Q13546). The experiment can be described thus: RIPK1 HTRF Binding Assay. The note with it: HTRF binding, 1 h at rt; read-out: RIPK1 (IC50). Summed up:
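HTRF probe-displacement binding: 1 nM His-GST-TVMV-hRIPK1(1-324) (baculovirus construct), 90.6 nM probe, 0.2 nM anti-GST-Tb in 20 mM HEPES, 10 mM MgCl2, 0.015% Brij-35, 4 mM DTT, 0.05 mg/mL BSA. Incubated 1 h at rt; FRET 520/495 nm ratio, inhibition relative to DMSO-only wells.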

Counter-ions that a name gives are not always drawn. Like-named read-outs stand apart in the source and are kept apart here.

From patent US11440913B2, “Aminoimidazopyridazines as kinase inhibitors” (BRISTOL-MYERS SQUIBB COMPANY, priority 2017, dated 2022) come the findings set out here.

His-GST-TVMV-hRIPK1(1-324), sequence (Q13546 1-324): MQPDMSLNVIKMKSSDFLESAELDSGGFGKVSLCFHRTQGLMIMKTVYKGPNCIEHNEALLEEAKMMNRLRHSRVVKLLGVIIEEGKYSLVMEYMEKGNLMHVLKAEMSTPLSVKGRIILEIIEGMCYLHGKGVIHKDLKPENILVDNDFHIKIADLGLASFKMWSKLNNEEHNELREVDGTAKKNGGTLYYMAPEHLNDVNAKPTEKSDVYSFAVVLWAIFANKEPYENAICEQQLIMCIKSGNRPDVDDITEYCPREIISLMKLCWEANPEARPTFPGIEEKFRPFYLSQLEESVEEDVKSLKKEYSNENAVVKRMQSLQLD

Turning to `[2H]C([2H])([2H])Oc1nc(C)c(-c2ccc3nc(NC(C)=O)cn3n2)cc1C(=O)NCc1cc(F)cc(F)c1OCC1CC1` [Example 177, N-{[2-(cyclopropylmethoxy)-3,5-difluorophenyl]methyl}-5-{2-acetamidoimidazo[1,2-b]pyridazin-6-yl}-2-(deutero)methoxy-6-methylpyridine-3-carboxamide], the IC50 in experiment [1] (Homo sapiens) was determined as 3 nM; in experiment [2], 2 nM.

As for `[2H]C([2H])([2H])Oc1nc(C)c(-c2ccc3nc(NC(C)=O)cn3n2)cc1C(=O)NC(C)c1ccccc1OC(F)(F)F` (single isomer, unassigned) [Example 13-1, 5-{2-acetamidoimidazo[1,2-b]pyridazin-6-yl}-2-(D3)methoxy-6-methyl-N-{1-[2-(trifluoromethoxy)phenyl]ethyl}pyridine-3-carboxamide], the IC50 was over 6250 nM in experiment [1] and 986 nM in experiment [2].

As for `COc1nc(C)c(-c2ccc3nc(NC(C)=O)cn3n2)cc1C(=O)NCc1ccccc1OC(C)CO` (stereo not shown) [Example 17, 5-{2-acetamidoimidazo[1,2-b]pyridazin-6-yl}-N-({2-[(1-hydroxypropan-2-yl)oxy]phenyl}methyl)-2-methoxy-6-methylpyridine-3-carboxamide], the 50% inhibitory concentration (IC50) in experiment [1] (Homo sapiens) was found to be 129 nM; in experiment [2], 27 nM.

Turning to `CC(=O)Nc1cn2nc(-c3cc(C(=O)NCc4ccccc4OC(F)(F)F)cnc3C)ccc2n1` [Example 233, 5-{2-acetamidoimidazo[1,2-b]pyridazin-6-yl}-6-methyl-N-{[2-(trifluoromethoxy)phenyl]methyl}pyridine-3-carboxamide], the IC50 was determined as 276 nM in experiment [1] (Homo sapiens) and 38 nM in experiment [2].

Regarding `CC(=O)Nc1cn2nc(-c3ccc(C)c(C(=O)NCc4cc(-c5cnn(C6CC6)c5)ccc4F)c3F)ccc2n1` [Example 409, N-{[5-(1-cyclopropyl-1H-pyrazol-4-yl)-2-fluorophenyl]methyl}-3-{2-acetamidoimidazo [1,2-b]pyridazin-6-yl}-2-fluoro-6-methylbenzamide], the figures for the IC50 in experiment [1] (Homo sapiens) and in experiment [2] were 13 nM and 2 nM, respectively.

Regarding `Cc1ncc(-c2ccc3nc(NC(=O)CO)cn3n2)cc1C(=O)N[C@@H](C)c1cc(OC(F)(F)F)ccc1F` [Example 181, N-[(1S)-1-[2-fluoro-5-(trifluoromethoxy)phenyl]ethyl]-5-[2-(2-hydroxyacetamido)imidazo[1,2-b]pyridazin-6-yl]-2-methylpyridine-3-carboxamide], the IC50 in experiment [1] (Homo sapiens) is 171 nM; in experiment [2], 103 nM.

With `CC(=O)Nc1cn2nc(-c3cnc(C)c(C(=O)NCc4ccccc4OC4CCCC4)c3)ccc2n1` [Example 225, N-{[2-(cyclopentyloxy)phenyl]methyl}-5-{2-acetamidoimidazo[1,2-b]pyridazin-6-yl}-2-methylpyridine-3-carboxamide], the IC50 is 3 nM in experiment [1] (Homo sapiens) and 5 nM in experiment [2].

With `COc1ncc(-c2ccc3nc(NC(C)=O)cn3n2)cc1C(=O)NCc1cc(F)cc(F)c1OCC(C)C` [Example 116, N-{[3,5-difluoro-2-(2-methylpropoxy)phenyl]methyl}-5-{2-acetamidoimidazo[1,2-b]pyridazin-6-yl}-2-methoxypyridine-3-carboxamide], the IC50 amounted to 3 nM in experiment [1] (Homo sapiens) and 10 nM in experiment [2].

Take `Cc1ncc(-c2ccc3nc(NC(=O)CN4CCN(C)CC4)cn3n2)cc1C(=O)N[C@H](C)c1cc(C(F)(F)F)ccc1F` [Example 332, N-[(1R)-1-[2-fluoro-5-(trifluoromethyl)-phenyl]ethyl]-2-methyl-5-{2-[2-(4-methylpiperazin-1-yl)acetamido]imidazo[1,2-b]pyridazin-6-yl}pyridine-3-carboxamide]: the figures for the IC50 in experiment [1] (Homo sapiens) and in experiment [2] were 25 nM and 308 nM, respectively.

On to `COc1nc(C)c(-c2ccc3nc(NC(C)=O)cn3n2)cc1C(=O)NCc1cccc(C(F)(F)F)c1` [Example 305, 5-{2-acetamidoimidazo[1,2-b]pyridazin-6-yl}-2-methoxy-6-methyl-N-{[3-(trifluoromethyl)phenyl]methyl}pyridine-3-carboxamide], for which the figures for the IC50 in experiment [1] (Homo sapiens) and in experiment [2] were 77 nM and 41 nM, respectively.

With `CC(=O)Nc1cn2nc(-c3cncc(C(=O)NCc4c(F)cccc4OC4CCCC4)c3)ccc2n1` [Example 240, N-{[2-(cyclopentyloxy)-6-fluorophenyl]methyl}-5-{2-acetamidoimidazo[1,2-b]pyridazin-6-yl}pyridine-3-carboxamide], the IC50 stood at 8 nM in experiment [1] (Homo sapiens) and 5 nM in experiment [2].

With `COc1nc(C)c(-c2ccc3nc(NC(C)=O)cn3n2)cc1C(=O)NCc1cccnc1OCC1CCCC1` [Example 313, N-{[2-(cyclopentylmethoxy)pyridin-3-yl]methyl}-5-{2-acetamidoimidazo[1,2-b]pyridazin-6-yl}-2-methoxy-6-methylpyridine-3-carboxamide], the IC50 in experiment [1] (Homo sapiens) is 22 nM; in experiment [2], 9 nM.

In the case of `COc1ncc(-c2ccc3nc(NC(C)=O)cn3n2)cc1C(=O)NCc1cc(F)cc(F)c1OC1CCOCC1` [Example 129, N-{[3,5-difluoro-2-(oxan-4-yloxy)phenyl]methyl}-5-{2-acetamidoimidazo[1,2-b]pyridazin-6-yl}-2-methoxypyridine-3-carboxamide, TFA], the IC50 is 2 nM in experiment [1] and 1 nM in experiment [2].

Turning to `COc1ncc(-c2ccc3nc(NC(C)=O)cn3n2)cc1C(=O)NCc1ccc(F)c(F)c1OC(C)C1CC1` (stereo not shown) [Example 132, N-{[2-(1-cyclopropylethoxy)-3,4-difluorophenyl]methyl}-5-{2-acetamidoimidazo[1,2-b]pyridazin-6-yl}-2-methoxypyridine-3-carboxamide], the results for the IC50 in experiment [1] and in experiment [2] were 64 nM and 10 nM, respectively.

For `CC(=O)Nc1nc2ccc(-c3cnc(C)c(C(=O)NCc4cc(C(F)(F)F)ccc4F)c3)nn2c1C` [Example 252, 5-{2-acetamido-3-methylimidazo[1,2-b]pyridazin-6-yl}-N-{[2-fluoro-5-(trifluoromethyl)phenyl]methyl}-2-methylpyridine-3-carboxamide], the IC50 amounted to 133 nM in experiment [1] (Homo sapiens) and 27 nM in experiment [2].

Consider `COc1nc(C)c(-c2ccc3nc(NC(C)=O)cn3n2)cc1C(=O)NCc1ccc(F)c(F)c1OCC1CC1` [Example 286, N-{[2-(cyclopropylmethoxy)-3,4-difluorophenyl]methyl}-5-{2-acelamidoimidazo[1,2-b]pyridazin-6-yl}-2-methoxy-6-methylpyridine-3-carboxamide], for which the IC50 in experiment [1] was 19 nM; in experiment [2], 9 nM.

In the case of `COc1nc(C)c(-c2ccc3nc(NC(C)=O)cn3n2)cc1C(=O)NCc1cc(C(F)(F)F)ccc1F` [Example 296, 5-{2-acetamidoimidazo[1,2-b]pyridazin-6-yl}-N-{[2-fluoro-5-(trifluoromethyl)phenyl]methyl}-2-methoxy-6-methylpyridine-3-carboxamide], the half-inhibitory concentration (IC50) in experiment [1] (Homo sapiens) is 20 nM; in experiment [2], 10 nM.

With `COc1ncc(-c2ccc3nc(NC(C)=O)cn3n2)cc1C(=O)N(C)Cc1cccc(OC(F)(F)F)c1` [Example 143, 5-{2-acetamidoimidazo[1,2-b]pyridazin-6-yl}-2-methoxy-N-methyl-N-{[3-(trifluoromethoxy)phenyl]meth-yl}pyridine-3-carboxamide], the IC50 in experiment [1] (Homo sapiens) worked out at 4 nM; in experiment [2], 8 nM.

Consider `CC(=O)Nc1cn2nc(-c3cc(C(=O)NCc4ncccc4OCC(F)(F)F)c(C)nc3C)ccc2n1` [Example 65, 5-{2-acetamidoimidazo[1,2-b]pyridazin-6-yl}-2,6-dimethyl-N-{[3-(2,2,2-trifluoroethoxy)pyridin-2-yl]methyl}pyridine-3-carboxamide], for which the results for the half-inhibitory concentration (IC50) in experiment [1] (Homo sapiens) and in experiment [2] were 374 nM and 44 nM, respectively.

For the compound `COc1ncc(-c2ccc3nc(NC(=O)C(C)C)cn3n2)cc1C(=O)NCc1ccc(F)c(F)c1OCC1CC1` [Example 264, N-{[2-(cyclopropylmethoxy)-3,4-difluorophenyl]methyl}-2-methoxy-5-[2-(2-methylpropanamido)imidazo[1,2-b]pyridazin-6-yl]pyridine-3-carboxamide, TFA], the values for the IC50 in experiment [1] and in experiment [2] were 240 nM and 55 nM, respectively.

In the case of “N-[(1R)-1-[2-fluoro-5- (trifluoromethyl)- phenyl]ethyl]-2- methyl-5-(2-{2-[4- (trifluoromethyl)piperidin-1- yl]acetamido}imidazo[1,2- b]pyridazin-6-yl)pyridine-3- carboxamide [Example 331]”, the IC50 in experiment [1] is 68 nM; in experiment [2], 42 nM.

As for `CCC(=O)Nc1cn2nc(-c3cnc(OC)c(C(=O)NCc4cc(OC(F)(F)F)ccc4F)c3)ccc2n1` [Example 10, N-{[2-fluoro-5-(trifluoromethoxy)phenyl]methyl}-2-methoxy-5-{2-propanamidoimidazo[1,2-b]pyridazin-6-yl}pyridine-3-carboxamide], the values for the IC50 in experiment [1] (Homo sapiens) and in experiment [2] were 33 nM and 11 nM, respectively.

With `CC(=O)Nc1cn2nc(-c3cnc(C(F)(F)F)c(C(=O)NCc4cc(OC(F)(F)F)ccc4F)c3)ccc2n1` [Example 18, 5-{2-acetamidoimidazo[1,2-b]pyridazin-6-yl}-N-{[2-fluoro-5-(trifluoromethoxy)phenyl]methyl}-2-(trifluoromethyl)pyridine-3-carboxamide], the IC50 in experiment [1] (Homo sapiens) was 177 nM; in experiment [2], 145 nM.
